According to patent US12296027B2, “Molecular renal probes for detecting acute kidney injury” (Nanyang Technological University, priority 2019, dated 2025):
Values joined by “and” are separate entries in the source; they are usually repeats but may differ in a detail not shown here. Equal entries are not always repeated.

Tests used:
[1] = Photophysical properties (absorption, fluorescence, quantum yield); assay type: physicochemical
Procedure: Optical measurement. […] The ADR solution (30 μM) was incubated with KO2 (60 μM) and NAG (40 mU), respectively, in PBS (10 mM, pH 7.4) at 37° C. […] Fluorescence images were acquired using the IVIS spectrum imaging system with excitation at 675±10 nm (640±10 nm for MRPD) and emission at 720±10 nm (760±10 nm for MRPD) and the acquisition time of 0.1 s. Chemiluminescence images were acquired under bioluminescence mode with open filter and the acquisition time of 1 s. The sensing capability of MRPs was analysed through HPLC. UV-Vis and fluorescence spectra of the uncaged fluorophores solution (30 μM) in PBS (10 mM, pH 7.4) were recorded on UV-Vis and fluorescence spectrophotometers.
Measurement of fluorescence quantum yields. ICG was used as a standard with a known fluorescence quantum yield (ϕ) value of 13% in DMSO (R. C. Benson, H. A. Kues, J. Chem. Eng. Data 1977, 22, 379-383). Fluorescence quantum yields were calculated using the following equation: ϕs/ϕf=(As/Af)×(Abss/Absf)×(ηs^2/ηf^2), Where ϕs and ϕf are the fluorescence quantum yields of the standard and the samples, respectively; As and Af are the emission areas of the standard and the samples, respectively; Abss and Absf are the absorbance of the standard and the samples at the wavelength of excitation; ηs and ηf are the refractive indices of the standard and the samples, respectively.

[2] = In vivo biodistribution by NIRF imaging; design: species or system mice; conditions: i.v., 8 μmol kg^−1 (MRPD 32 μmol kg^−1)
Procedure: All animal studies were performed in compliance with the guidelines set by the Institutional Animal Care and Use Committee (IACUC), Sing Health. Female nude mice (Tac:Cr:(NCr)-Fox1nu, 8 weeks old) were obtained from InVivos Pte Ltd (Singapore). Aged female nude mice (25 weeks old) were obtained by feeding after receive at 8 weeks old. Female Balb/c mice (10 weeks old), male type 2 diabetic BKS-db mice (BKS-Lepr^em2Cd479 with a C57BLKS/J background, 12 weeks old) and male nondiabetic C57BLKS/J wild-type mice (12 weeks) were obtained from Nanjing Biomedical Research Institute of Nanjing University (Nanjing, China). NCr nude mice were i.v. injected with 0.2 ml saline (control), the uncaged fluorophores (CMe, CP2, CP5 and CCD, 8 μmol kg^−1 body weight) or MRPD (32 μmol kg^−1 body weight), and imaged using the IVIS spectrum imaging system at 30 and 60 min post-injection. The abdominal cavity and resected organs from mice were imaged after sacrifice at t=60 min post-injection. Fluorescence images were acquired using the IVIS spectrum imaging system with excitation at 675±10 nm (640±10 nm for MRPD) and emission at 720±10 nm (760±10 nm for MRPD). Fluorescence intensities for each organ were analysed by the region of interest (ROI) analysis using the Living Image 4.3 Software (3 mice were analysed for each sample).

[3] = Renal clearance efficiency studies (urine HPLC); assay type: in vivo; conditions: healthy mice, i.v.
Procedure: NCr nude mice were i.v. injected with the uncaged fluorophores (CMe, CP2, CP5 and CCD, 8 μmol kg^−1 body weight), MRPs1-3 (8 μmol kg^−1 body weight) or MRPD (32 μmol kg^−1 body weight) and placed in metabolic cages (3 mice were analysed for each sample). […] Urine was collected at 1, 3, 6, 9 and 24 h post-injection, centrifuged at 4500 r.p.m. for 8 min and filtered by 0.22 μm syringe filter. Excretion of the uncaged fluorophores and MRPs in the urine was quantified using HPLC. Mice were sacrificed to image resected organs after 24 h urine collection. Fluorescence intensities for resected organs were analysed by the ROI analysis using the Living Image 4.3 Software. Major organs were collected, homogenised in PBS buffer (10 mM, pH 7.4) and centrifuged at 4500 r.p.m for 15 min to remove insoluble components. Fluorescence intensities of the final supernatants were measured on fluorescence spectrophotometer.
Mice were i.v. injected with ADR (30 μmol kg^−1 body weight) and placed in metabolic cages. Urine was collected at 1, 3, 6, 9 and 24 h post-injection, diluted in PBS and centrifuged at 4500 r.p.m. for 10 min and filtered by 0.22 μm syringe filter. ADR in the urine was quantified using HPLC. The absorption and fluorescence spectra were measured for the urine samples. […]

[4] = in 3 h, Patients; cited from earlier work

Row | Stokes shift [1] [nm] | λab, wavelength of maximum absorbance ([1]; PBS pH 7.4) | λem, wavelength of maximum emission ([1]; PBS pH 7.4) | renal clearance efficiency at 24 h post-injection [3] | Renal clearance efficiency (%) ([3]; Table 5) | Structure (SMILES) | biodistribution at 1 h post-injection (ex vivo NIRF) [2] | Renal clearance efficiency [4] [% ID in 3 h]
1 | 25 | 690 nm and 697 nm | 720 nm and 722 nm | nearly undetectable in urine | <5 | C[N+]1=C(/C=C/C2=C3Oc4cc(O)ccc4C=C3CCC2)C(C)(C)c2ccccc21 [CMe] | mainly accumulated in the liver, gallbladder, and intestine | –
2 | – | – | – | – | – | O=C([O-])CN=C([O-])CN=C([O-])CN=C([O-])C[S-].[O-2].[Tc+4] [^99mTc-MAG3] | – | 90
